This is an account of results in ChEMBL document CHEMBL1137252, “Substituted 5-benzyl-2-phenyl-5H-imidazo[4,5-c]pyridines: a new class of pestivirus inhibitors” (Bioorg Med Chem Lett, 2006).

Active and inactive are the calls of the source. No rule for the calls is given here.

One may read the EC50 as the midpoint of the concentration-response curve. Higher therefore signals lower potency in that assay. A word on the CC50: it is the concentration giving 50% cytotoxicity.

The nature of series [1]: Selectivity index, CC50 for MDBK cells/EC50 for BVDV NADL. Type of series: functional.
The next series deals with Hepatitis C virus. Nature of the series: Antiviral activity against HCV 1a. The class given is functional, organism-based. The settings on record: Hepacivirus hominis; subtype 1a.
The subject of series [2] is Bovine viral diarrhea virus 1. Nature of the series: Antiviral activity against BVDV NADL in MDBK cells. Type of series: functional, organism-based. The settings on record: Bovine viral diarrhea virus isolates and strains.
Series [3] in a line: Cytotoxicity against MDBK cells. The class given is cell-based, Bos taurus. The settings on record: cattle.

Take `COc1ccccc1Cn1ccc2nc(-c3ccccc3)nc-2c1`: the “Ratio CC50/EC50” value in series [1] is greater than 370. Also, the result with Hepatitis C virus was inactive. Besides, a half-maximal effect in series [2] (EC50) was put at 0.27 µM. In series [3], the CC50 was greater than 100 µM.
Taken in the same sequence, the figures for `c1ccc(-c2nc3ccn(Cc4ccc5ccccc5c4)cc-3n2)cc1` were 13, “inactive”, 5 µM and 67 µM.
Regarding `c1ccc(CCCCn2ccc3nc(-c4ccccc4)nc-3c2)cc1`, the “Ratio CC50/EC50” value in series [1] is reported as 45. The outcome in the series with Hepatitis C virus was inactive. The same molecule registered an EC50 in series [2] of 2.1 µM. In series [3], this molecule had a cytotoxic concentration (CC50) of 95 µM.
On to `Brc1cccc(Cn2ccc3nc(-c4ccccc4)nc-3c2)c1`, for which the “Ratio CC50/EC50” value in series [1] was found to be 304. Further, the result in the series on Hepatitis C virus was inactive. It took 0.28 µM to reach a half-maximal effect in series [2] (EC50). The CC50 in series [3] is 85 µM.
The like results for `c1ccc(-c2nc3ccn(Cc4cccnc4)cc-3n2)cc1` were, in that order, greater than 59, “inactive”, 1.7 µM and greater than 100 µM.
The like results for `Cc1ccccc1Cn1ccc2nc(-c3ccccc3)nc-2c1` were, in that order, greater than 333, “inactive”, 0.3 µM and greater than 100 µM.
In the case of `FC(F)(F)c1ccc(Cn2ccc3nc(-c4ccccc4)nc-3c2)cc1`, the “Ratio CC50/EC50” value in series [1] amounted to 455. For the same molecule, the result in the series on Hepatitis C virus was inactive. The molecule also showed an EC50 in series [2] of 0.22 µM. Also, in series [3], the CC50 is 84 µM.
Taken in the same sequence, the figures for `Fc1cccc(F)c1-c1nc2ccn(Cc3ccccc3)cc-2n1` were greater than 25, “inactive”, 4 µM and greater than 100 µM.
Taken in the same sequence, the figures for `Clc1ccc(Cn2ccc3nc(-c4ccccc4)nc-3c2)cc1Cl` were 645, “inactive”, 0.11 µM and 71 µM.
Taken in the same sequence, the figures for `Fc1cccc(F)c1Cn1c(-c2c(F)cccc2F)nc2cnccc21` were greater than 6, “inactive”, 16.2 µM and greater than 100 µM.
For `c1ccc(-c2nc3ccn(CC4CCCCC4)cc-3n2)cc1`, the “Ratio CC50/EC50” value in series [1] is greater than 118. For the same molecule, the outcome with Hepatitis C virus was inactive. The EC50 in series [2] is 0.85 µM. This molecule displayed a cytotoxic concentration (CC50) in series [3] greater than 100 µM.
Taken in the same sequence, the figures for `c1ccc(-c2nc3ccn(Cc4ccncc4)cc-3n2)cc1` were greater than 50, “inactive”, 2 µM and greater than 100 µM.
As for `Cc1ccc(Cn2ccc3nc(-c4ccccc4)nc-3c2)cc1`, the “Ratio CC50/EC50” value in series [1] is greater than 769. Moreover, in the series with Hepatitis C virus, the outcome was inactive. In addition, in series [2], a half-maximal effect (EC50) was put at 0.13 µM. Also, in series [3], the CC50 was greater than 100 µM.
Turning to `Brc1ccc(Cn2ccc3nc(-c4ccccc4)nc-3c2)cc1`, the “Ratio CC50/EC50” value in series [1] was found to be 1186. The result with Hepatitis C virus was inactive. This molecule also yielded an EC50 in series [2] of 0.07 µM.
For `Fc1cccc(F)c1Cn1c(-c2c(F)cccc2F)nc2ccncc21`, in series [1], the “Ratio CC50/EC50” value is “<=2”. Further, in the series with Hepatitis C virus, the result was inactive. The EC50 in series [2] is no less than 48 µM. The molecule further displayed a CC50 in series [3] of 99 µM.
As for `Clc1ccccc1Cn1ccc2nc(-c3ccccc3)nc-2c1`, the “Ratio CC50/EC50” value in series [1] is recorded as greater than 526. In the series on Hepatitis C virus, the outcome was inactive. In addition, the response in series [2] was half-maximal at 0.19 µM (EC50). This molecule registered a CC50 in series [3] greater than 100 µM.
Consider `O=C(O)c1ccc(Cn2ccc3nc(-c4ccccc4)nc-3c2)cc1`, for which the outcome in the series with Hepatitis C virus was inactive. For the same molecule, in series [2], the EC50 is greater than 100 µM. This molecule registered a CC50 in series [3] greater than 100 µM.
In the case of `Fc1cccc(Cn2ccc3nc(-c4ccccc4)nc-3c2)c1`, in series [1], the “Ratio CC50/EC50” value is given as greater than 667. The result in the series with Hepatitis C virus was inactive. In series [2], this molecule registered an EC50 of 0.15 µM. The molecule further registered a CC50 in series [3] greater than 100 µM.
